This note sets out measurements from patent publication US10681909B2, “Herbicidal triazoles” (FMC Corporation, priority 2014, dated 2020).

In assay [1] the test system is crabgrass, large. In words: Test A preemergence. Type of assay: in vivo, Digitaria sanguinalis. The conditions noted are these: Digitaria sanguinalis, pre-emergence, 240 h, 0 to 100 scale (0 no effect, 100 complete control), read-out: Plant response rating, Crabgrass, Large; for pest or weed control at 125 g/ha: 125 g ai/ha; for pest or weed control at 500 g/ha: 500 g ai/ha, approx. 10 d. Put shortly: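 Pre- and postemergence spray tests in a loam soil–sand mixture: seeded soil received a directed spray, while established seedlings 2–10 cm high at the one- to two-leaf stage were treated over the top. Compounds were carried in non-phytotoxic solvent with surfactant.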

The subject of assay [2] is crabgrass, large. Kind of assay: Test C preemergence. Type of assay: in vivo, Digitaria sanguinalis. The conditions noted are these: for Plant response rating (scale of 0 to 100 where 0 is no effect and 100 is complete control): Crabgrass, Large, preemergence; for Crabgrass, Large plant response rating (0 to 100): Preemergence, visual rating after 13 to 15 d. The source says:
(§1) Seeds of plant species selected from blackgrass (Alopecurus myosuroides), ryegrass, Italian (Italian ryegrass, Lolium multiflorum), wheat (winter wheat, Triticum aestivum), galium (catchweed bedstraw, Galium aparine), corn (Zea mays), crabgrass, large (large crabgrass, Digitaria sanguinalis), foxtail, giant, (giant foxtail, Setaria faberii), johnsongrass (Sorghum halepense), lambsquarters (Chenopodium album), morningglory (Ipomoea coccinea), nutsedge, yellow (yellow nutsedge, Cyperus esculentus), pigweed (Amaranthus retroflexus), ragweed (common ragweed, Ambrosia elatior), soybean (Glycine max), barnyardgrass (Echinochloa crus-galli), oilseed rape (Brassica napus), waterhemp (common waterhemp, Amaranthus rudis), and velvetleaf (Abutilon theophrasti) were planted into a blend of loam soil and sand and treated preemergence with test chemicals formulated in a non-phytotoxic solvent mixture which included a surfactant. At the same time, plants selected from these crop and weed species and also chickweed (common chickweed, Stellaria media), oat, wild (wild oat, Avena fatua), and kochia (Kochia scoparia), were planted in pots containing Sunshine Redi-Earth® planting medium comprising spaghnum peat moss, vermiculite, starter nutrients and dolomitic limestone and treated with postemergence applications of test chemicals formulated in the same manner. Plants ranged in height from 2 to 18 cm (1- to 4-leaf stage) for postemergence treatments. […] A dash (-) response means no test result.

Assay [3] relates to wheat (winter wheat). Kind of assay: Test C preemergence. Type of assay: in vivo, Triticum aestivum. The settings on record: for Wheat plant response rating (0 to 100): Preemergence, visual rating after 13 to 15 d; for Plant response rating (scale of 0 to 100 where 0 is no effect and 100 is complete control): Wheat, preemergence, 250 g ai/ha.
From the text: as §1

Assay [4] relates to blackgrass. Kind of assay: Test A postemergence. Type of assay: in vivo, Alopecurus myosuroides. The conditions noted are these: 0 to 100 scale (0 no effect, 100 complete control), approx. 10 d. The source says: Seeds of plant species selected from barnyardgrass (Echinochloa crus-galli), crabgrass, large (large crabgrass, Digitaria sanguinalis), kochia (Kochia scoparia), ragweed (common ragweed, Ambrosia elatior), foxtail, giant (giant foxtail, Setaria faberii), morningglory (Ipomoea spp.), pigweed (Amaranthus retroflexus), velvetleaf (Abutilon theophrasti), ryegrass, Italian (Italian ryegrass, Lolium multiflorum), wheat (Triticum aestivum), and corn (Zea mays) were planted into a blend of loam soil and sand and treated preemergence with a directed soil spray using test chemicals formulated in a non-phytotoxic solvent mixture which included a surfactant.
At the same time, plants selected from these crop and weed species and also blackgrass (Alopecurus myosuroides), and galium (catchweed bedstraw, Galium aparine), were planted in pots containing the same blend of loam soil and sand and treated with postemergence applications of test chemicals formulated in the same manner. Plants ranged in height from 2 to 10 cm and were in the one- to two-leaf stage for the postemergence treatment. Treated plants and untreated controls were maintained in a greenhouse for approximately 10 d, after which time all treated plants were compared to untreated controls and visually evaluated for injury. Plant response ratings, summarized in Table A, are based on a 0 to 100 scale where 0 is no effect and 100 is complete control. A dash (-) response means no test result.

On to `Cn1nc(-c2ccc(F)cc2)nc1C(O)c1ccnc(C(F)(F)F)c1` (stereo not drawn) [Compound 14, α-[3-(4-fluorophenyl)-1-methyl-1H-1,2,4-triazol-5-yl]-2-(trifluoromethyl)-4-pyridinemethanol], for which, in assay [1], the pest or weed control at 125 g/ha worked out at 60% and the pest or weed control at 500 g/ha was 100%.

Consider `CCn1nc(-c2ccc(F)cc2)nc1C(=O)c1ccnc(C(F)(F)F)c1` [Compound 19, [1-ethyl-3-(4-fluorophenyl)-1H-1,2,4-triazol-5-yl][2-(trifluoromethyl)-4-pyridinyl]methanone], for which, in assay [1], the pest or weed control at 125 g/ha came out at 0% and the pest or weed control at 500 g/ha stood at 50%.

On to `COc1nc(-c2ccc(F)cc2)nn1Cc1ccnc(C(F)(F)F)c1` [Compound 9, 4-[[3-(4-fluorophenyl)-5-methoxy-1H-1,2,4-triazol-1-yl]methyl]-2-(trifluoromethyl)pyridine], for which the pest or weed control at 125 g/ha in assay [1] stood at 100%. Further, the pest or weed control at 500 g/ha in assay [1] was 100%. Moreover, the results for the “Plant response rating (scale of 0 to 100 where 0 is no effect and 100 is complete control)” value in assay [2] (125 g ai/ha), in assay [2] (250 g ai/ha) and in assay [3] were 100, 100 and 25, respectively. The “Crabgrass, Large plant response rating (0 to 100)” value (from here on “Crabgrass … (0 to 100)”) was determined as 95 in assay [2] (31 g ai/ha) and 100 in assay [2] (62 g ai/ha). The “Wheat plant response rating (0 to 100)” value is 0 in assay [3] (31 g ai/ha) and 5 in assay [3] (62 g ai/ha).

Take `CS(=O)(=O)c1nc(-c2ccc(F)cc2)nn1Cc1ccnc(C(F)(F)F)c1` [Compound 29, 4-[[3-(4-fluorophenyl)-5-(methylsulfonyl)-1H-1,2,4-triazole-1-yl]methyl]-2-(trifluoromethyl)pyridine]: in assay [1], the pest or weed control at 125 g/ha came to 0% and the pest or weed control at 500 g/ha is 0%.

As to `CCCc1nc(-c2ccc(F)cc2)nn1Cc1ccnc(C(F)(F)F)c1` [Compound 6, 4-[[3-(4-fluorophenyl)-5-propyl-1H-1,2,4-triazol-1-yl]methyl]-2-(trifluoromethyl)pyridine], in assay [1], the pest or weed control at 125 g/ha was 100%. The pest or weed control at 500 g/ha in assay [1] was 100%. The “Plant response rating (scale of 0 to 100 where 0 is no effect and 100 is complete control)” value in assay [2] (125 g ai/ha) was found to be 100; in assay [2] (250 g ai/ha), 100; in assay [3], 60. Also, the “Crabgrass … (0 to 100)” value in assay [2] (31 g ai/ha) and in assay [2] (62 g ai/ha) was 100 throughout. Besides, the “Wheat plant response rating (0 to 100)” value in assay [3] (31 g ai/ha) is listed as 0; in assay [3] (62 g ai/ha), 10.

As for `COc1nc(-c2ccccc2)nn1Cc1ccnc(C(F)(F)F)c1` [Compound 32], the “Plant response rating, Blackgrass” value in assay [4] (125 g ai/ha) is listed as 20; in assay [4] (500 g ai/ha), 50. The results for the “Plant response rating (scale of 0 to 100 where 0 is no effect and 100 is complete control)” value in assay [2] (125 g ai/ha), in assay [2] (250 g ai/ha) and in assay [3] were 100, 98 and 0, respectively. The “Crabgrass … (0 to 100)” value in assay [2] (31 g ai/ha) came to 65; in assay [2] (62 g ai/ha) it was 90. The “Wheat plant response rating (0 to 100)” value in assay [3] (31 g ai/ha) and in assay [3] (62 g ai/ha) was 0 each time.

As to `Cn1nc(-c2ccc(F)cc2)nc1Oc1cccc(C(F)(F)F)c1` [Compound 5, 3-(4-fluorophenyl)-1-methyl-5-[3-(trifluoromethyl)phenoxy]-1H-1,2,4-triazole], in assay [1], the pest or weed control at 125 g/ha was 70% and the pest or weed control at 500 g/ha amounted to 100%.

On to `CCOc1nc(-c2ccc(Cl)cc2)nn1Cc1ccnc(C(F)(F)F)c1` [Compound 26], for which the entries for the “Plant response rating, Blackgrass” value in assay [4] (31 g ai/ha) and in assay [4] (125 g ai/ha) were 30 and 50, respectively.

In the case of `COc1nc(-c2ccc(C(F)(F)F)cc2)nn1Cc1ccnc(C(F)(F)F)c1` [Compound 25], the “Plant response rating, Blackgrass” value in assay [4] (31 g ai/ha) turned out to be 10; in assay [4] (125 g ai/ha), 30.

As to `CCCn1nc(-c2ccc(F)cc2)nc1Cc1ccnc(C(F)(F)F)c1` [Compound 17, 4-[[3-(4-fluorophenyl)-1-propyl-1H-1,2,4-triazol-5-yl]methyl]-2-(trifluoromethyl)pyridine], in assay [1], the pest or weed control at 125 g/ha stood at 100% and the pest or weed control at 500 g/ha came out at 100%.

In the case of `CCn1nc(-c2ccc(F)cc2)nc1C(O)c1ccnc(C(F)(F)F)c1` (stereo not drawn) [Compound 15, α-[1-Ethyl-3-(4-fluorophenyl)-1H-1,2,4-triazol-5-yl]-2-(trifluoromethyl)-4-pyridinemethanol], in assay [1], the pest or weed control at 125 g/ha came out at 10% and the pest or weed control at 500 g/ha was found to be 30%.

As to `CCCOc1nc(-c2ccccc2)nn1Cc1ccnc(C(F)(F)F)c1` [Compound 33], the “Plant response rating, Blackgrass” value in assay [4] (125 g ai/ha) is reported as 30; in assay [4] (500 g ai/ha), 50.
